Measurements: US11021457B2, “Class of isoindolone-imide ring-1,3-dione-2-ene compounds, composition and use thereof” (WIGEN BIOMEDICINE TECHNOLOGY (SHANGHAI) CO., LTD., priority 2017, dated 2021)

Key:
Assay type in all cases: cell-based
A549 = assay: Inhibition of tumor cell proliferation, CellTiter-Glo, A549; settings: compound concentration 50 μM, 72 hours; for cell survival rate (% of control) at 50 µM: Homo sapiens, A549, read-out: Inhibitory activity against proliferation (cell survival rate) A549
Method: (§1) For various cell lines, the corresponding complete medium was used, and culture was carried out in an incubator at 37° C. with 5% CO2. The cells were counted, and inoculated into a 96-well plate at 2000-10000 cells/100 μl per well according to the cell volume and growth rate. The suspended cells were treated immediately, and the adherent cells were treated after adherence. The CellTiter-Glo method was used to detect the changes in cell viability 72 hours after the administration, and the cell survival rate at different concentrations was calculated by a formula: Survival rate (%)=(RLU of treatment well−RLU of blank well)/(RLU of control well−RLU of blank well)×100.
(§2) Method for expressing the inhibitory activity of the compounds against the proliferation of tumor cells: Evaluation was made based on the cell survival rate at a compound concentration of 50 μM. 60≤survival rate (%)<90 is considered to have low inhibitory activity against the proliferation of tumor cells (+); 30<survival rate (%)≤60 is considered to have moderate inhibitory activity against the proliferation of tumor cells (++); and survival rate (%)≤30 is considered to have high inhibitory activity against the proliferation of tumor cells (+++).

K562 = assay: Inhibition of tumor cell proliferation, CellTiter-Glo, K562; settings: compound concentration 50 μM, 72 hours; for cell survival rate (%) at 50 µM: Homo sapiens, K562, read-out: Inhibitory activity against proliferation (cell survival rate) K562
Method: as §1, §2

SU-DHL6 = assay: Inhibition of tumor cell proliferation, CellTiter-Glo, SU-DHL6; settings: compound concentration 50 μM, 72 hours; for cell survival rate (% of control) at 50 µM: Homo sapiens, SU-DHL-6, read-out: Inhibitory activity against proliferation (cell survival rate) SU-DHL6
Method: as §1, §2

RPMI-8226 = assay: Inhibition of tumor cell proliferation, CellTiter-Glo, RPMI-8226; settings: compound concentration 50 μM, 72 hours; for cell survival rate (% of control) at 50 µM: Homo sapiens, RPMI-8226, read-out: Inhibitory activity against proliferation (cell survival rate) RPMI-8226
Method: as §1, §2

MDA-MB-453 = assay: Inhibition of tumor cell proliferation, CellTiter-Glo, MDA-MB-453; settings: compound concentration 50 μM, 72 hours; for cell survival rate (%) at 50 µM: Homo sapiens, MDA-MB-453, read-out: Inhibitory activity against proliferation (cell survival rate) MDA-MB-453
Method: as §1, §2

BxPC-3 = assay: Inhibition of tumor cell proliferation, CellTiter-Glo, BxPC-3; settings: compound concentration 50 μM, 72 hours; for cell survival rate (%) at 50 µM: Homo sapiens, BXPC-3, read-out: Inhibitory activity against proliferation (cell survival rate) BxPC-3
Method: as §1, §2

`O=C1CCC(N2C(=O)c3cccc(NC(=O)c4ccc(CN5CCN(CCNC=C6C(=O)CC(c7ccccc7)CC6=O)CC5)cc4)c3C2=O)C(=O)N1` (stereo not drawn) [Compound 94] was tested, and the “Inhibitory activity against proliferation (cell survival rate) A549” value (A549) was “+++ (survival rate (%)≤30)”, the “Inhibitory activity against proliferation (cell survival rate) K562” value (K562) was “+++ (survival rate (%)≤30)” and the “Inhibitory activity against proliferation (cell survival rate) SU-DHL6” value (SU-DHL6) was “+++ (survival rate (%)≤30)”. The “Inhibitory activity against proliferation (cell survival rate) RPMI-8226” value (RPMI-8226) was “+++ (survival rate (%)≤30)”, the “Inhibitory activity against proliferation (cell survival rate) MDA-MB-453” value (MDA-MB-453) was “+++ (survival rate (%)≤30)” and the “Inhibitory activity against proliferation (cell survival rate) BxPC-3” value (BxPC-3) was “+ (60≤survival rate (%)<90)”.
For `O=C1CCC(N2Cc3c(NC=C4C(=O)CC(c5c6ccccc6cc6ccccc56)CC4=O)cccc3C2=O)C(=O)N1` (stereo not drawn) [Compound 30], the “Inhibitory activity against proliferation (cell survival rate) A549” value (A549) was “+++ (survival rate (%)≤30)”, the “Inhibitory activity against proliferation (cell survival rate) K562” value (K562) was “+++ (survival rate (%)≤30)” and the “Inhibitory activity against proliferation (cell survival rate) SU-DHL6” value (SU-DHL6) was “+++ (survival rate (%)≤30)”. The “Inhibitory activity against proliferation (cell survival rate) RPMI-8226” value (RPMI-8226) was “+++ (survival rate (%)≤30)”, the “Inhibitory activity against proliferation (cell survival rate) MDA-MB-453” value (MDA-MB-453) was “+++ (survival rate (%)≤30)” and the “Inhibitory activity against proliferation (cell survival rate) BxPC-3” value (BxPC-3) was “+ (60≤survival rate (%)<90)”.
`CC1C(=O)/C(=C/Nc2cccc3c2CN(C2CCC(=O)NC2=O)C3=O)C(=O)CC1c1ccccc1` (stereo not drawn) [Compound 127] gave a cell survival rate (% of control) at 50 µM (A549) of 60 to 90%, a cell survival rate (%) at 50 µM (K562) of 60 to 90% and a cell survival rate (% of control) at 50 µM (SU-DHL6) of at most 30%. The cell survival rate (% of control) at 50 µM (RPMI-8226) was 60 to 90%, the cell survival rate (%) at 50 µM (MDA-MB-453) was 60 to 90% and the cell survival rate (%) at 50 µM (BxPC-3) was 60 to 90%.
For `O=C1CCC(N2Cc3c(NC=C4C(=O)CC(c5cccc6ccccc56)CC4=O)cccc3C2=O)C(=O)N1` (stereo not drawn) [Compound 29], the “Inhibitory activity against proliferation (cell survival rate) A549” value (A549) was “+++ (survival rate (%)≤30)”, the “Inhibitory activity against proliferation (cell survival rate) K562” value (K562) was “+++ (survival rate (%)≤30)” and the “Inhibitory activity against proliferation (cell survival rate) SU-DHL6” value (SU-DHL6) was “++ (30<survival rate (%)≤60)”. The “Inhibitory activity against proliferation (cell survival rate) RPMI-8226” value (RPMI-8226) was “+++ (survival rate (%)≤30)”, the “Inhibitory activity against proliferation (cell survival rate) MDA-MB-453” value (MDA-MB-453) was “+++ (survival rate (%)≤30)” and the “Inhibitory activity against proliferation (cell survival rate) BxPC-3” value (BxPC-3) was “++ (30<survival rate (%)≤60)”.
With `CC(Nc1cccc2c1CN(C1CCC(=O)NC1=O)C2=O)=C1C(=O)CC(c2ccccc2)CC1=O` (stereo not drawn) [Compound 73] the “Inhibitory activity against proliferation (cell survival rate) A549” value (A549) was “+++ (survival rate (%)≤30)”, the “Inhibitory activity against proliferation (cell survival rate) K562” value (K562) was “+++ (survival rate (%)≤30)” and the “Inhibitory activity against proliferation (cell survival rate) SU-DHL6” value (SU-DHL6) was “+++ (survival rate (%)≤30)”. The “Inhibitory activity against proliferation (cell survival rate) RPMI-8226” value (RPMI-8226) was “+ (60≤survival rate (%)<90)”, the “Inhibitory activity against proliferation (cell survival rate) MDA-MB-453” value (MDA-MB-453) was “+++ (survival rate (%)≤30)” and the “Inhibitory activity against proliferation (cell survival rate) BxPC-3” value (BxPC-3) was “+ (60≤survival rate (%)<90)”.
With `Cc1cc(C(=O)Nc2cccc3c2CN(C2CCC(=O)NC2=O)C3=O)ccc1NC=C1C(=O)CC(c2ccccc2)CC1=O` (stereo not drawn) [Compound 51] the “Inhibitory activity against proliferation (cell survival rate) A549” value (A549) was “+ (60≤survival rate (%)<90)”, the “Inhibitory activity against proliferation (cell survival rate) K562” value (K562) was “+ (60≤survival rate (%)<90)” and the “Inhibitory activity against proliferation (cell survival rate) SU-DHL6” value (SU-DHL6) was “+ (60≤survival rate (%)<90)”. The “Inhibitory activity against proliferation (cell survival rate) RPMI-8226” value (RPMI-8226) was “+++ (survival rate (%)≤30)”, the “Inhibitory activity against proliferation (cell survival rate) MDA-MB-453” value (MDA-MB-453) was “+ (60≤survival rate (%)<90)” and the “Inhibitory activity against proliferation (cell survival rate) BxPC-3” value (BxPC-3) was “+ (60≤survival rate (%)<90)”.
`O=C1CCC(N2Cc3c(NC=C4C(=O)CC(c5nccs5)CC4=O)cccc3C2=O)C(=O)N1` (stereo not drawn) [Compound 111] was tested, and the cell survival rate (% of control) at 50 µM (A549) was 60 to 90%, the cell survival rate (%) at 50 µM (K562) was at most 30% and the cell survival rate (% of control) at 50 µM (SU-DHL6) was at most 30%. The cell survival rate (% of control) at 50 µM (RPMI-8226) was at most 30%, the cell survival rate (%) at 50 µM (MDA-MB-453) was at most 30% and the cell survival rate (%) at 50 µM (BxPC-3) was 60 to 90%.
